1 compound from patent US20250042897A1, “HETEROCYCLIC COMPOUNDS AS TRIGGERING RECEPTOR EXPRESSED ON MYELOID CELLS 2 AGONISTS AND METHODS OF USE” (Vigil Neuroscience, Inc., priority 2021, published 2025) can be followed below.

The term pEC50 denotes the negative decadic logarithm of the EC50, by convention in mol/L.

pEC50: −log10 of the molar value.

The target of this assay is T1, human TREM2 (Homo sapiens, UniProt Q9NZC2).
T1 construct: expressed in transfected cells; host or cells: HEK293T
Nature of the assay: hTREM2 agonist potency by cellular Syk phosphorylation (AlphaLisa) in HEK293T-hTREM2 cells. Type of assay: cell-based. The settings on record: Table D; HEK293 cells expressing human TREM2 and DAP12; pSyk AlphaLisa; 45 minutes at room temperature. As for the experimental part: In Vitro Measurement of Triggering Receptor Expressed on Myeloid Cells 2 Activity Using Cellular Phosphorylation of Spleen Tyrosine Kinase (“Syk”) Assays
Measurement of TREM2 agonist potency was done using a HEK cell line expressing human TREM2 and DAP12 (HEK293T-hTREM2 cells). Binding of small molecules to, and activation of, TREM2 increases the phosphorylation of Syk. The resultant levels of Syk phosphorylation are measured using a commercial AlphaLisa reagent kit. To perform the assay, HEK-hTREM2 cells were plated at 14,000 cells per well in a 384 well plate, in 25 μL of complete growth media and incubated at 37° C., 5% CO2 for 20-24 hours.
Prior to the assay, test compounds were diluted in the 384 well plates in assay buffer and allowed to equilibrate for 30 minutes. Growth media was removed from cell plates by inversion on blotting paper, and 25 μL of test articles in assay buffer was added to cells. Cells were incubated for 45 minutes at room temperature. After 45 minutes, assay buffer was removed and 10 μL of lysis buffer was added. Plates were shaken for 20 minutes at 350 RPM at room temperature. After complete lysis, AlphaLisa reagents were added to the lysate, and fluorescence intensity was measured using a Perkin Elmer Envision plate reader. Intensities were used to generate a standard curve, and % activation was calculated. Curve fitting was performed using Prism v9 software, log (agonist) vs response-variable slope (four parameters), and EC50s were calculated from the curve fit.
The results presented in Table D have been generated with the in vitro assay described above. This assay may be used to test any of the compounds described herein to assess and characterize a compound's ability to act as an agonist of TREM2.
Background: Bead proximity is the source of the signal in Alpha formats.

T1 sequence (Q9NZC2 19-230): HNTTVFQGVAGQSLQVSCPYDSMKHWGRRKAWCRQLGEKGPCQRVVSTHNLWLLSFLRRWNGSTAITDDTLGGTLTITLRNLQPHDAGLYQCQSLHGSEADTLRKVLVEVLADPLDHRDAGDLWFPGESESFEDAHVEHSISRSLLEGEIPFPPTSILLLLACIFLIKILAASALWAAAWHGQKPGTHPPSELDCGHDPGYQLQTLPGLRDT
T1 sequence (O43914 22-113 partner): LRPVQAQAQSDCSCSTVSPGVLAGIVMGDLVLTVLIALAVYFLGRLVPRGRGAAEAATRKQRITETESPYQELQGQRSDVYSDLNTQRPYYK

The compound `Cc1nc2nc(-c3ccc(F)cc3F)cc(C3CCOC(c4cnn(C5CC5)c4)C3)c2c(=O)n1C` (stereo not shown) [compound 5, 5-(2-(1-cyclopropyl-1H-pyrazol-4-yl)tetrahydro-2H-pyran-4-yl)-7-(2,4-difluorophenyl)-2,3-dimethylpyrido[2,3-d]pyrimidin-4(3H)-one] had a negative logarithm of the EC50 (pEC50) of 5.52 to 6.30.
